In experiment [1] the test system is human colon carcinoma cell line, SW-480. Description: Growth inhibition, Sulforhodamine B (SRB) protein binding assay. Particulars: SW-480 cell line, six days continuous exposure. It counts as cell-based. The protocol: These compounds were assayed for their growth inhibitory activity on the human colon carcinoma cell line, SW-480 obtained from ATCC (Rockville, Md.), to ascertain the degree of growth inhibition. Growth inhibition of this cell line is indicative of a benefit on precancerous lesions and neoplasms. The cell line and growth assay employed for these experiments are well characterized, and are used to evaluate the anti-neoplastic properties of NSAIDs. The assay is used by the United States National Cancer Institute in its screening program for new anti-cancer drugs.
Drug stock solutions were made in 100% DMSO then diluted with RPMI media for cell culture testing. All drug solutions were prepared fresh on the day of testing. The cultured cells were obtained at passage #99 and grown in RPMI media supplemented with 5% fetal calf serum, and 2 mM glutamine, 100 U/ml penicillin, 100 U/ml streptomycin, and 0.25 μg/ml amphotericin. The cultures were maintained in a humidified atmosphere of 95% air and 5% CO2 at 37° C. The cultures were passaged at preconfluent densities using a solution of 0.05% trypsin and 0.53 mM EDTA. Cells were plated at 1000 cells/well for 96 well flat-bottom microtiter plates.
Tumor cell growth inhibition was assessed using the Sulforhodamine B (SRB) protein binding assay. In this assay, tumor cells were plated in 96-well plates and treated with drug-containing media for six days (continuous exposure). For each plate, 6 wells were designated as no treatment controls, six wells as vehicle (0.1% DMSO) controls, and the remaining wells for drug dilutions with three wells per drug concentration. At the end of the exposure period, the cells were fixed and stained with sulforhodamine B, a protein binding dye. The dye was then solubilized, and the optical density of the resulting solution was determined on a 96-well plate reader. The mean dye intensity of the treated wells was then divided by the mean dye intensity in the control wells (6 wells of each) to determine the effect of the drug on the cells. Dye intensity is proportional to the number of cells or amount of protein per well. The resultant “percent inhibition” value then represents the degree of growth inhibition caused by the drug.
For each experiment, an IC50 value was determined and used for comparative purposes. This value is equivalent to the concentration of drug needed to inhibit tumor cell growth by 50%. IC50 values were obtained graphically by connecting the mean values for each drug concentration tested. Each experiment included at least three wells per drug concentration. Concentration was plotted on a log scale on the X-axis.

The test system of experiment [2] is HT-29 human colon carcinoma cells. Description: Apoptosis by morphology (acridine orange/ethidium bromide, condensed chromatin). The note with it: HT-29 cells. Format: cell-based. The procedure:
Apoptosis was measured using an assay of cell death based on morphological characteristics of apoptotic cells (i.e., condensed chromatin). Drug preparation and cell culture conditions were the same as for the SRB assay described above, except that HT-29 human colon carcinoma cells were employed/Confluent cultures were established in 12.5 cm^2 flasks by plating 0.5×10^6 cells/flask. The cultures were assayed for apoptosis by fluorescent microscopy following labeling with acridine orange and ethidium bromide. Floating and attached cells were collected by trypsinization and washed three times in PBS. One ml aliquots were centrifuged (3 g). The pellet was resuspended in 25 μl media and 1 μl of a dye mixture containing 100 μg/ml acridine orange and 100 μg/ml ethidium bromide prepared in PBS and mixed gently. Ten μl of mixture was placed on a microscope slide and covered with a 22 mm^2 coverslip and examined under 40×dry objectives using epillumination and filter combination.
An observer blinded to the identity of the treatments scored at least 100 cells per sample. Apoptotic cells were identified by nuclear condensation of chromatin stained by the acridine orange or ethidium bromide.

Experiment [3] has as its system SW-480 colon adenocarcinoma cells. Description: Apoptosis by DNA fragmentation (Cell Death Detection ELISA plus). It counts as cell-based, human. The note with it: SW-480 cells, 48 hrs; for EC50: by software or estimated from effective concentration range; for DNA Fragmentation FS (100 μM): fold stimulation FS=ODmax/ODveh. The procedure: Apoptosis was also measured based on the amount of fragmented DNA contained in cell lysates. Briefly, SW-480 colon adenocarcinoma cells were plated in 96-well microtitre plates (“MTP”) at a density of 10K cells/well in 180 μl and incubated for 24 hrs. Cells were then treated with 20 μl aliquots of appropriately diluted compound, and allowed to incubate for an additional 48 hrs.
After the incubation, samples were prepared according to the following steps. The MTP was centrifuged (15 min., 1000 rpm) and the supernatant was carefully removed by fast inversion of the MTP. The cell pellents in each well were then resuspended in ^200 μl lysis buffer and incubated for 45 min. at room temperature to lyse the cells. The lysates were then centrifuged (15 min., 1000 rpm) and 20 μl aliquots of the supernatant (=cytoplasmic fraction) were transferred into the streptavidin coated MTP for analysis. Care was taken not to shake the lysed pellets in the MTP (=cell nucleii containing high molecular weight, unfragmented DNA). Samples were analyzed immediately, because storage at 4 C or −20 C reduces the ELISA-signals.
Samples were then processed according to a DNA fragmentation assay protocol, and dose-response curves were generated based on optical density readings. Quantification of DNA was done by a commercially available photometric enzyme-immunoassay manufactured by Mannheim-Boehringer under the name “Cell Death Detection ELISA^plus”. The assay is based on a quantitative sandwich-enzyme-immunoassay-principle using mouse monoclonal antibodies directed against DNA and histones, respectively. This allows the specific determination of mono and oligonucleosomes in the cytoplasmatic fraction of cell lysates. In brief, the assay procedure is as follows. The sample (cell-lysate, serum, culture-supernatant etc.) is placed into a streptavidin-coated MTP. Subsequently, a mixture of anti-histone-biotin and anti-DNA-POD are added and incubated for 2 hours. During the incubation period, the anti-histone antibody binds to the histone-component of the nucleosomes and simultaneously fixes the immunocomplex to the streptavidin-coated MTP via its biotinylation. Additionally, the anti-DNA-POD antibody reacts with the DNA component of the nucleosomes. After removal of unbound antibodies by a washing step, the amount of nucleosomes is quantified by the POD retained in the immunocomplex. POD is determined photometrically with ABTS® (2,2′-Azino-di[3-ethylbenzthiazolin-sulfonat])* as substrate.
Fold stimulation (FS=ODmax/ODveh), an indicator of apoptotic response, was determined for each compound tested. EC50 values were determined either specifically by data analysis software, or by estimates based on the effective concentration range of each compound (ECR=min. effective dose-min. dose to peak effect). These FS and EC50 values for the tested compounds are listed above in Table 6.

For the next experiment, the target named is T1, COX I (Ovis aries, UniProt P05979).
T1 construct: The COX was purified form ram seminal vesicles; from tissue; host or cells: ram seminal vesicles
T1 sequence (P05979 25-600): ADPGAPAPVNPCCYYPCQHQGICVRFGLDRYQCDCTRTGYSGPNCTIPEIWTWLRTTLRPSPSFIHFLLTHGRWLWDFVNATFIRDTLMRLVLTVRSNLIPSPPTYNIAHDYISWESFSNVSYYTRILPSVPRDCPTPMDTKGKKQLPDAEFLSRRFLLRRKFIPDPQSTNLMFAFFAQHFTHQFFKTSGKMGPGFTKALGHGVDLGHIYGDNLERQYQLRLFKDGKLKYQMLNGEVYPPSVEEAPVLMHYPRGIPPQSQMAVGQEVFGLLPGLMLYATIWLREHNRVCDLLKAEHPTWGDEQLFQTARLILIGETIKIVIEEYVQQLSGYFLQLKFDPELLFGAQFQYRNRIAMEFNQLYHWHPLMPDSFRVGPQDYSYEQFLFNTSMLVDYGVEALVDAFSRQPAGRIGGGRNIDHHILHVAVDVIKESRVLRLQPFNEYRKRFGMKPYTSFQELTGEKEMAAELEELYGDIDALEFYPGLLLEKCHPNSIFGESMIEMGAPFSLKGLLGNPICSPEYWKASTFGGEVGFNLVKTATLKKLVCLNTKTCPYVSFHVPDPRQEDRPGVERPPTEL
Description: Cyclooxygenase (COX) inhibition, purified COX. Particulars: purified COX from ram seminal vesicles; for COX I % Inhibition (values marked *): values marked *: 1000 μM test compound; for COX I % Inhibition (100 μM): 100 μM test compound, arachidonic acid 100 μM. It counts as biochemical. The procedure:
Compounds of this invention, as well as a positive control, sulindac sulfide were to determine whether they inhibited the production of cyclooxygenase (see Table 5 below).
COX catalyzes the formation of prostaglandins and thromboxane by the oxidative metabolism of arachidonic acid. The compounds of this invention were evaluated for inhibitory effects on purified COX. The COX was purified form ram seminal vesicles, as described by Boopathy, R. and Balasubramanian, J. 239:371-377, 1988. COX activity was assayed as described by Evans, A. T., et al., “Actions of cannabis constituents on enzymes of arachidonate metabolism anti-flammatory potential,” Biochem. Pharmacol., 36:2035-2037, 1987. Briefly, purified COX was incubated with arachidonic acid (100 μM) for 2.0 min at 37° C. in the presence or absence of test compounds. The assay was terminated buy the addition of TCA, and COX activity was determined by absorbance at 530 nm.

Molecules are shown by their SMILES. Marks after values point to notes of the source that are not given here. Some results are limits rather than exact numbers.

`COc1cc(/C=C2/C(C)=C(CC(=O)NCCCCc3ccccc3)c3cc(F)ccc32)cc(OC)c1OC` [Example 41, (Z)-5-fluoro-2-methyl-1-(3,4,5-trimethoxybenzylidene)-3-(N-4-phenylbutyl)-indenylacetamide]: in experiment [1], the IC50 was more than 10000 nM. The “Morphology % Apoptotic Cells (1 μM)” value in experiment [2] amounted to 30%. Further, in experiment [3], the EC50 was more than 10000 nM and the “DNA Fragmentation FS (100 μM)” value is less than 2. Further, the “COX I % Inhibition (values marked *)” value at COX I is given as 59* %.
Turning to `COc1cc(/C=C2/C(C)=C(CC(=O)NCc3ccccc3F)c3cc(F)ccc32)cc(OC)c1OC` [Example 32, (Z)-5-fluoro-2-methyl-1-(3,4,5-trimethoxybenzylidene)-3-(N-2-fluorobenzyl)-indenylacetamide], the IC50 in experiment [1] was determined as 2200 nM. The “Morphology % Apoptotic Cells (1 μM)” value in experiment [2] came to 55%. For the same molecule, in experiment [3], the EC50 is 320 nM and the “DNA Fragmentation FS (100 μM)” value came out at 2.5. The “COX I % Inhibition (values marked *)” value at COX I is 58* %.
For `COc1cc(/C=C2/C(C)=C(CC(=O)NCCc3ccccc3)c3cc(F)ccc32)cc(OC)c1OC` [Example 39, (Z)-5-fluoro-2-methyl-1-(3,4,5-trimethoxybenzylidene)-3-(N-2-phenylethyl)-indenylacetamide] the same measures were more than 10000 nM, 31%, more than 10000 nM, 2 and 59* %.
On to `COc1cc(/C=C2/C(C)=C(CC(=O)NCc3ccccn3)c3cc(F)ccc32)cc(OC)c1OC` [Example 48], for which the IC50 in experiment [1] amounted to 500 nM. In addition, the “Morphology % Apoptotic Cells (1 μM)” value in experiment [2] turned out to be 63%. Further, in experiment [3], the EC50 is 500 nM and the “DNA Fragmentation FS (100 μM)” value turned out to be 2.5. Moreover, on COX I, the “COX I % Inhibition (100 μM)” value is listed as less than 25%.
For the molecule `COc1cc(/C=C2/C(C)=C(CC(=O)N[C@H](O)Cc3ccccc3)c3cc(F)ccc32)cc(OC)c1OC` [Example 45, (Z)-5-fluoro-2-methyl-1-(3,4,5-trimethoxybenzylidene)-3-(N-(R)-1-hydroxy-2-phenylethyl)-idenylacetamide], the IC50 in experiment [1] is more than 10000 nM. Moreover, in experiment [2], the “Morphology % Apoptotic Cells (1 μM)” value was determined as 40%. In experiment [3], the EC50 was more than 10000 nM and the “DNA Fragmentation FS (100 μM)” value stood at 3.4. In addition, on COX I, the “COX I % Inhibition (values marked *)” value was 56* %.
`COc1cc(/C=C2/C(C)=C(CC(=O)NCc3ccccc3Cl)c3cc(F)ccc32)cc(OC)c1OC` [Example 4, (Z)-5-fluoro-2-methyl-1-(3,4,5-trimethoxybenzylidene)-3-(N-2-chlorobenzyl)-indenylacetamide] returned an IC50 in experiment [1] of 360 nM. Moreover, the “Morphology % Apoptotic Cells (1 μM)” value in experiment [2] is listed as 68%. In experiment [3], the EC50 was 250 nM and the “DNA Fragmentation FS (100 μM)” value is 2.4. In addition, the “COX I % Inhibition (100 μM)” value on COX I is reported as less than 25%.
For `COc1cc(/C=C2/C(C)=C(CC(=O)NCc3cc(F)ccc3F)c3cc(F)ccc32)cc(OC)c1OC` [Example 8, (Z)-5-fluoro-2-methyl-1-(3,4,5-trimethoxybenzylidene)-3-(N-2,5-difluorobenzyl)-indenylacetamide] the same measures were 120 nM, 48%, 210 nM, less than 2 and less than 25%.
`COc1ccc(/C=C2/C(C)=C(CC(=O)NCc3ccccc3)c3cc(F)ccc32)c(OC)c1OC` [Example 57, (Z)-5-fluoro-2-methyl-1-(2,3,4-trimethoxybenzylidene)-3-(N-benzyl)-indenylacetamide] displayed an IC50 in experiment [1] of 260 nM. Besides, the “Morphology % Apoptotic Cells (1 μM)” value in experiment [2] came out at 73%. In experiment [3], the EC50 is 300 nM and the “DNA Fragmentation FS (100 μM)” value is listed as less than 2. Also, on COX I, the “COX I % Inhibition (100 μM)” value is less than 25%.
`COc1cc(/C=C2/C(C)=C(CC(=O)Nc3ccc(Br)cc3)c3cc(F)ccc32)cc(OC)c1OC` [Example 23, (Z)-5-fluoro-2-methyl-1-(3,4,5-trimethoxybenzylidene)-3-(N-4-bromophenyl)-indenylacetamide] came in with an IC50 in experiment [1] of 8000 nM. Also, the “COX I % Inhibition (100 μM)” value on COX I is listed as less than 25%.

A word on the IC50: it is the concentration that inhibits the measured activity by half. Low readings indicate inhibition by little substance, high ones a need for much substance. For orientation: EC50 means the concentration at which the effect is half-maximal.

Source of the values: patent US6403831B1, “Substituted benzylidene indenyl formamides, acetamides and propionamides” (Cell Pathways, Inc., priority 1996, dated 2002).
